In ChEMBL document CHEMBL5291721, “A preclinical secondary pharmacology resource illuminates target-adverse drug reaction associations of marketed drugs” (Nat Commun, 2023):

Tests used:
Bile salt export pump = Bile salt export pump (Homo sapiens, UniProt O95342); type: functional
Adenosine receptor A3 = target: T1, Adenosine receptor A3 (Homo sapiens, UniProt P0DMS8)
T1 sequence (P0DMS8 whole entry): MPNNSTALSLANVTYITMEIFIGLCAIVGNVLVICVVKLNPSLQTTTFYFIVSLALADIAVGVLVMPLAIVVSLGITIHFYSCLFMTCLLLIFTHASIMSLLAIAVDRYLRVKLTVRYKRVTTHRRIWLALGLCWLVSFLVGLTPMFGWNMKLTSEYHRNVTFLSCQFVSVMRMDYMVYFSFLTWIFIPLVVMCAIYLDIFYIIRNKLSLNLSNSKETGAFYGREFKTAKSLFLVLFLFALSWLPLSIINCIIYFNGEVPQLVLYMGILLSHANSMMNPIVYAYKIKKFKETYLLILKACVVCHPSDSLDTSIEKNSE

[1] = target: T2, Alpha-2A adrenergic receptor (Homo sapiens, UniProt P08913); type: functional, cell-based
T2 sequence (P08913 whole entry): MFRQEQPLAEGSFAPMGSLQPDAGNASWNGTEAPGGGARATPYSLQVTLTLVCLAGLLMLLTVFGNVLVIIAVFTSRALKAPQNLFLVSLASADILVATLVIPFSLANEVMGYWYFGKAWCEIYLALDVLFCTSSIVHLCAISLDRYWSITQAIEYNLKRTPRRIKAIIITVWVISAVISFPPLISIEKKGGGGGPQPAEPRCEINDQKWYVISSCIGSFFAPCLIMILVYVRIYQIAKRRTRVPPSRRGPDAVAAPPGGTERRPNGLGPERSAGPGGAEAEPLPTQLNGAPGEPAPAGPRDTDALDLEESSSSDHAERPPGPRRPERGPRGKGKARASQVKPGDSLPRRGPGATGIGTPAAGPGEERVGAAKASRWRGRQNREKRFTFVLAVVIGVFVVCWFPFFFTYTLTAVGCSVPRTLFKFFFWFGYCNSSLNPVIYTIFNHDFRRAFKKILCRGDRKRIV

[2] = target: T3, Alpha-2C adrenergic receptor (Homo sapiens, UniProt P18825); type: functional
T3 sequence (P18825 whole entry): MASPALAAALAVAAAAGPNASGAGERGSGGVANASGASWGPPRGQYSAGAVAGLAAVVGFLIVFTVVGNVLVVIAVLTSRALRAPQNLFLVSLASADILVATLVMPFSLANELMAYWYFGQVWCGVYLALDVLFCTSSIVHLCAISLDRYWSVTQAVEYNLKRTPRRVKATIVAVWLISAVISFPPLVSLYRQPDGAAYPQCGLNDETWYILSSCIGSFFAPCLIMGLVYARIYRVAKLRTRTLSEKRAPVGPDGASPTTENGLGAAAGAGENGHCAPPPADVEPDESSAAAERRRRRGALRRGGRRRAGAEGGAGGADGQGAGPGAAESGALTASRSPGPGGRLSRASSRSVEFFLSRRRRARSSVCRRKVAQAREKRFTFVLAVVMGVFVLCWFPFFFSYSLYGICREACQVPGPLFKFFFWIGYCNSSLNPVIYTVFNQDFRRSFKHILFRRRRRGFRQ

[3] = target: T4, Muscarinic acetylcholine receptor M2 (Homo sapiens, UniProt P08172); type: functional, cell-based
T4 sequence (P08172 whole entry): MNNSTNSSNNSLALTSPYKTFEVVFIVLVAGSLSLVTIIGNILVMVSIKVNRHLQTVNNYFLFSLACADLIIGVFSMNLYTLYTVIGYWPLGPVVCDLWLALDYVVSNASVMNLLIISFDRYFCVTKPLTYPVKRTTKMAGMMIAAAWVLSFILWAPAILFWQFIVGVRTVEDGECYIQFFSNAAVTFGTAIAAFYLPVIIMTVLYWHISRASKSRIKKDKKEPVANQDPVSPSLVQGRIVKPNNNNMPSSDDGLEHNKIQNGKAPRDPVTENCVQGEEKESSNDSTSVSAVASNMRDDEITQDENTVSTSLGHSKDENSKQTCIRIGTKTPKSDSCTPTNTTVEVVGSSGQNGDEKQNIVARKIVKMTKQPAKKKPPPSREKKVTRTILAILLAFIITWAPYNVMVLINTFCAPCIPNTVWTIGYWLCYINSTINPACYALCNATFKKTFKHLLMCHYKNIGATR

D(1A) dopamine receptor = D(1A) dopamine receptor (Homo sapiens, UniProt P21728); type: functional, cell-based
[4] = target: 5-hydroxytryptamine receptor 2B (Homo sapiens, UniProt P41595); type: functional, cell-based
[5] = target: T5, 5-hydroxytryptamine receptor 3A (Homo sapiens, UniProt P46098); type: functional
T5 sequence (P46098 whole entry): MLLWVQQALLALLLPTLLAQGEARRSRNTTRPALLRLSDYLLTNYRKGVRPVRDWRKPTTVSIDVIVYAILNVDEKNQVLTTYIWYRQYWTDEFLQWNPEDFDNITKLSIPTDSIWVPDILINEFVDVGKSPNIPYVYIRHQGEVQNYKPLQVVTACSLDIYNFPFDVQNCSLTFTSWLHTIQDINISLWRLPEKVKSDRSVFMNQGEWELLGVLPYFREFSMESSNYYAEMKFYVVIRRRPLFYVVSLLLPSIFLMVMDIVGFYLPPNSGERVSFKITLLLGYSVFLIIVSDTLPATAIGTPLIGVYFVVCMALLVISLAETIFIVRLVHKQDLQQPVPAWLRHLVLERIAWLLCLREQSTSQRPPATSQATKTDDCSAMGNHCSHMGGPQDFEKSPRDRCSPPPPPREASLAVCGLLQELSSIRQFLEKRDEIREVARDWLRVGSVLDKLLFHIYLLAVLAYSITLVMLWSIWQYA

[6] = target: Voltage-gated inwardly rectifying potassium channel KCNH2 (Homo sapiens, UniProt Q12809); type: functional; conditions: read-out: AC50
Motilin receptor = Motilin receptor (Homo sapiens, UniProt O43193)
[7] = target: Delta-type opioid receptor (Homo sapiens, UniProt P41143)
[8] = target: 3',5'-cyclic-AMP phosphodiesterase 4D (Homo sapiens, UniProt Q08499); type: functional
[9] = target: Sodium-dependent dopamine transporter (Homo sapiens, UniProt Q01959)
[10] = target: cGMP-inhibited 3',5'-cyclic phosphodiesterase 3A (Homo sapiens, UniProt Q14432); type: functional
Further: assay procedure not described here.

Chain of 3',5'-cyclic-AMP phosphodiesterase 4D (Q08499 whole entry): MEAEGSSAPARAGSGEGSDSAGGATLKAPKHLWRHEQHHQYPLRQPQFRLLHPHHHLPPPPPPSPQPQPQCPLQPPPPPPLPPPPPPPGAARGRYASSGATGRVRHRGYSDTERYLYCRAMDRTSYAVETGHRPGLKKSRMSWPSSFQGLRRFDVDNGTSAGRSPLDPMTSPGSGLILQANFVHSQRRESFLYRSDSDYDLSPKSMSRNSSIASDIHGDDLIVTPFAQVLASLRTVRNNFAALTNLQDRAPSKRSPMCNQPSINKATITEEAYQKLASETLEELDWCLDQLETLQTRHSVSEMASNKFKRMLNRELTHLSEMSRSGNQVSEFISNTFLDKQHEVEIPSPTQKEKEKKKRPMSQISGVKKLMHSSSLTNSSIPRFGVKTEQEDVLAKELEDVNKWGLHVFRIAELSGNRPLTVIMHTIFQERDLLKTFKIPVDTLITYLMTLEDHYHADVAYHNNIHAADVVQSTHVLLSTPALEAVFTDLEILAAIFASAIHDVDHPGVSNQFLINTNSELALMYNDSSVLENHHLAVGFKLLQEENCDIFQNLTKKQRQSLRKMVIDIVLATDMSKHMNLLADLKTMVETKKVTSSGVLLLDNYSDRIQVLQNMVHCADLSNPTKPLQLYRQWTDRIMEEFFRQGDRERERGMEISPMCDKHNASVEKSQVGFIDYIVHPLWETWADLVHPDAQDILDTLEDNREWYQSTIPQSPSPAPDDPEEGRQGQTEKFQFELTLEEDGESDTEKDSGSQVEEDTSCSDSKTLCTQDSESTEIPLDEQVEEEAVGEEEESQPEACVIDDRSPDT
Chain of cGMP-inhibited 3',5'-cyclic phosphodiesterase 3A (Q14432 whole entry): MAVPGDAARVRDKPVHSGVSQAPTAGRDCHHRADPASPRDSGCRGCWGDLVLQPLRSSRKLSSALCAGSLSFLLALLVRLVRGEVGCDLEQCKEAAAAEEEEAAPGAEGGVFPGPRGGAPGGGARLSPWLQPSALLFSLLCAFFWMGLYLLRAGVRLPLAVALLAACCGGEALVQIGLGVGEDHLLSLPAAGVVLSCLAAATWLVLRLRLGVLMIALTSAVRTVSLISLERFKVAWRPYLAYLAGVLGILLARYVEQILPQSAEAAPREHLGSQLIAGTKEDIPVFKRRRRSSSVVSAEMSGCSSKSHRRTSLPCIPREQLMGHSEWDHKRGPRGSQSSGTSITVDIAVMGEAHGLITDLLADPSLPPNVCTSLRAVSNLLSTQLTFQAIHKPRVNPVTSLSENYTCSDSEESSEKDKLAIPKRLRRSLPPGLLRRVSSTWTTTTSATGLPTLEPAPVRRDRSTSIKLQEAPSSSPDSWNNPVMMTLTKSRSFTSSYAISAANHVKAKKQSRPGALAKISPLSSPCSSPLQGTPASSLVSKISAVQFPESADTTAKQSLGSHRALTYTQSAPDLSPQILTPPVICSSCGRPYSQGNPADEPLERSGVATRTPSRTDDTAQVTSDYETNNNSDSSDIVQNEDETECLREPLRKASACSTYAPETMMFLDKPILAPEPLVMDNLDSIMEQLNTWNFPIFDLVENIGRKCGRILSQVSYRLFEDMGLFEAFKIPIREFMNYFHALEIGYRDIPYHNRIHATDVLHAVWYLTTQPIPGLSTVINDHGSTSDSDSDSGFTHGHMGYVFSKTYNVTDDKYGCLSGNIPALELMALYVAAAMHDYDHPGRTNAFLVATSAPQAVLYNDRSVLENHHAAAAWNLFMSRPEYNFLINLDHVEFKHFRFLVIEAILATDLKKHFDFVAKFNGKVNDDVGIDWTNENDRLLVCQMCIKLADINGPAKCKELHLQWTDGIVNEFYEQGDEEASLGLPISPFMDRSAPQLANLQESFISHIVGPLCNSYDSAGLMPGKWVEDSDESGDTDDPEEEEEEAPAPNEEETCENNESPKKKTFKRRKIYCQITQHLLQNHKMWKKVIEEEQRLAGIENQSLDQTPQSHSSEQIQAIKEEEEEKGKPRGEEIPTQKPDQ
Chain of Sodium-dependent dopamine transporter (Q01959 whole entry): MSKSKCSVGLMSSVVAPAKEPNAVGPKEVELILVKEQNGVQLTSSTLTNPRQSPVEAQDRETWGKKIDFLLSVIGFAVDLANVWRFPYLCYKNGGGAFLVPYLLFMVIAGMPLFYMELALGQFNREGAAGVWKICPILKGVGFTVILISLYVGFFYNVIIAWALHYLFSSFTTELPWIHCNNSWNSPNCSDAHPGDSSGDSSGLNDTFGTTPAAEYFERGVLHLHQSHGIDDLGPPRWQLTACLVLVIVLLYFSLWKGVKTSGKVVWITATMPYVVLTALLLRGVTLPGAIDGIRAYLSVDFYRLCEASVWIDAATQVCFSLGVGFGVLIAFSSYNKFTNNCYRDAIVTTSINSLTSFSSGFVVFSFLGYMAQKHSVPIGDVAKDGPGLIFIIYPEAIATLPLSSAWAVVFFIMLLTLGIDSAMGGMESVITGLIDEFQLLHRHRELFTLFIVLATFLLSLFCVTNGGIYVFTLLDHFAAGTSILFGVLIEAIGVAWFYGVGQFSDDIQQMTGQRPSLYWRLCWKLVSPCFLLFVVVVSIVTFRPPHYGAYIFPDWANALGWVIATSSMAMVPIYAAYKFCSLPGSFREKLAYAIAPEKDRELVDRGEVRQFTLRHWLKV
Chain of Voltage-gated inwardly rectifying potassium channel KCNH2 (Q12809 whole entry): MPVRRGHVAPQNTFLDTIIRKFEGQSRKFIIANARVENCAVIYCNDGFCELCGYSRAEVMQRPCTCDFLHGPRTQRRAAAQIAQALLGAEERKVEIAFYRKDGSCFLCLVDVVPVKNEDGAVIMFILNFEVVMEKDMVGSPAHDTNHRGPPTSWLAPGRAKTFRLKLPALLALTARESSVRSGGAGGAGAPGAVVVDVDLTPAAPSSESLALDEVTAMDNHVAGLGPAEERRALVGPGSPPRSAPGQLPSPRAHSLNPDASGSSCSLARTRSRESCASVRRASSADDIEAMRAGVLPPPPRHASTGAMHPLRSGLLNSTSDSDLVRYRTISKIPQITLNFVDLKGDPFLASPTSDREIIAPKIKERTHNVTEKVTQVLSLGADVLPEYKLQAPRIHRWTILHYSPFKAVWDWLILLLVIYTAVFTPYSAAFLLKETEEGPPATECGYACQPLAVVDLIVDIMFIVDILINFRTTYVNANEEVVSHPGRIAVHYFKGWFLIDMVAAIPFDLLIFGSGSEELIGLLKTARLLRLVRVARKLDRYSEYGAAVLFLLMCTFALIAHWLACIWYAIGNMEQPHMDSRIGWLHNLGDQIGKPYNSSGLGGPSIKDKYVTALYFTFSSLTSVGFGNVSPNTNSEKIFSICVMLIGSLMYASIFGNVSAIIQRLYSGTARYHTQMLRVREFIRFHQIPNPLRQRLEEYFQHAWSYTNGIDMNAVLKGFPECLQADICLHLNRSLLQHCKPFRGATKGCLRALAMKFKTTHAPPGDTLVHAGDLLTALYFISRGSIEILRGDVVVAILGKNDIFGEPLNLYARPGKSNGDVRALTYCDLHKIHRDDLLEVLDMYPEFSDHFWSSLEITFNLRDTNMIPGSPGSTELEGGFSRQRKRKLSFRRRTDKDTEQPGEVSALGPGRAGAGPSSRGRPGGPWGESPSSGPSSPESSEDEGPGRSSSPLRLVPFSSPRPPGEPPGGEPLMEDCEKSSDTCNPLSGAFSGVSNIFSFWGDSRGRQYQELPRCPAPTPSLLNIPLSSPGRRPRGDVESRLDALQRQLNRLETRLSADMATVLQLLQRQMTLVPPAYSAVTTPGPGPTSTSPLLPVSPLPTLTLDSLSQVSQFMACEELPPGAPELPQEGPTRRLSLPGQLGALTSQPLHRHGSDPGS
Chain of Motilin receptor (O43193 whole entry): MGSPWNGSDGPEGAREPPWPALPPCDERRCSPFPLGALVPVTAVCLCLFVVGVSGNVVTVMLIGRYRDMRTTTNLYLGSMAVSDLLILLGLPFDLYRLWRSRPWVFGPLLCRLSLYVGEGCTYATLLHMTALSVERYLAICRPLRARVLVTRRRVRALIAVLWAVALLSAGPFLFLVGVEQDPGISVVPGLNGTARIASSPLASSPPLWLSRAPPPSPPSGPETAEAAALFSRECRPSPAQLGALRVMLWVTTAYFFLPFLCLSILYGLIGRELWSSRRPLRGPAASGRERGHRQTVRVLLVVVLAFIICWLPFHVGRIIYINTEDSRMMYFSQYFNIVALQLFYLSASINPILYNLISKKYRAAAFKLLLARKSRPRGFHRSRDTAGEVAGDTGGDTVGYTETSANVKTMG
Chain of Delta-type opioid receptor (P41143 whole entry): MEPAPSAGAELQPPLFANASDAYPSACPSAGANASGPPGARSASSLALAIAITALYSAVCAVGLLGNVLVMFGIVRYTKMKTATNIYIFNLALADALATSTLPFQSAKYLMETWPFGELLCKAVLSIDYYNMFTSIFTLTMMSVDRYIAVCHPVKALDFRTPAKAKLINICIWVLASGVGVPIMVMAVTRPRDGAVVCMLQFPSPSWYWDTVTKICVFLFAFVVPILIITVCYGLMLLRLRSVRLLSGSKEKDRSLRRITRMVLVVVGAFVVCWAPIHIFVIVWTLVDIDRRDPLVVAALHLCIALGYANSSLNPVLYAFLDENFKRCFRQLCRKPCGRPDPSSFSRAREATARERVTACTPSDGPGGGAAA
Chain of 5-hydroxytryptamine receptor 2B (P41595 whole entry): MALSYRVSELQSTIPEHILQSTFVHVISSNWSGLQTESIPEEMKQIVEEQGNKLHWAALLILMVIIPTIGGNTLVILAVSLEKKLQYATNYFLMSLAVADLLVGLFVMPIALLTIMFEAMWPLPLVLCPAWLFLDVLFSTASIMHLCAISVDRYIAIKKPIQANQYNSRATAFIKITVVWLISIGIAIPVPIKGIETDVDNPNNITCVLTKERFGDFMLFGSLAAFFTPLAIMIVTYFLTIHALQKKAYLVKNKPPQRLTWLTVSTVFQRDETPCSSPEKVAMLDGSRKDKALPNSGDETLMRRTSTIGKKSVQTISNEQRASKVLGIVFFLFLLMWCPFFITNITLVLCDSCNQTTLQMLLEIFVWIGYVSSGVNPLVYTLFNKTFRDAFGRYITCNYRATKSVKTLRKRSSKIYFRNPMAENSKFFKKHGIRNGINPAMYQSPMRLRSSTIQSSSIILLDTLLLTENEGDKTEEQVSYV

Row | SMILES | AC50 (Bile salt export pump) [µM] | AC50 (Adenosine receptor A3) [µM] | AC50 [1] [µM] | AC50 [2] [µM] | AC50 [3] [µM] | AC50 (D(1A) dopamine receptor) [µM] | AC50 [4] [µM] | AC50 [5] [µM] | AC50 [6] [µM] | AC50 (Motilin receptor) [µM] | AC50 [7] [µM] | AC50 [8] [µM] | AC50 [9] [µM] | AC50 [10] [µM]
1 | CS(=O)(=O)c1ccc([C@@H](O)[C@@H](CO)NC(=O)C(Cl)Cl)cc1 [THIAMPHENICOL] | > 300 | > 30 | > 30 | > 30 | > 30 | > 30 | > 30 | > 30 | > 30 | > 30 | > 30 | > 30 | > 30 | > 30
2 | CC(C(=O)O)c1ccc(N2CC=CC2)c(Cl)c1 (stereo unspecified) [PIRPROFEN] | 270 | > 30 | > 10 | > 10 | > 10 | > 10 | > 10 | > 30 | > 30 | > 10 | > 30 | > 30 | > 10 | > 30
3 | C[C@@H]1O[C@@H]1P(=O)(O)O [FOSFOMYCIN] | > 300 | > 10 | > 10 | > 10 | > 10 | > 10 | > 10 | > 30 | > 30 | > 10 | > 30 | > 30 | > 10 | > 30
4 | CC(C)NNC(=O)c1ccncc1 [IPRONIAZID] | > 300 | > 30 | > 30 | > 30 | > 30 | > 30 | > 30 | > 30 | > 30 | > 30 | > 30 | > 30 | > 30 | > 30
5 | COC(=O)N[C@H](C(=O)N[C@@H](Cc1ccccc1)[C@@H](O)CN(Cc1ccc(-c2ccccn2)cc1)NC(=O)[C@@H](NC(=O)OC)C(C)(C)C)C(C)(C)C [ATAZANAVIR] | 2 | > 30 | > 10 | > 10 | > 10 | > 10 | > 10 | > 30 | > 30 | 6.4 | > 30 | > 30 | > 30 | > 30
6 | CO/N=C(\C(=O)N[C@@H]1C(=O)N2C(C(=O)[O-])=C(C[N+]3(C)CCCC3)CS[C@H]12)c1csc(N)n1 | > 300 | > 300 | > 300 | > 300 | > 300 | > 300 | > 300 | > 300 | > 300 | > 300 | > 300 | > 300 | > 300 | > 300
7 | NC1=NC(=O)C(c2ccccc2)O1 (stereo unspecified) [PEMOLINE] | > 300 | > 30 | > 10 | > 10 | > 10 | > 10 | > 10 | > 30 | > 30 | > 10 | > 30 | > 30 | 3.46 | > 30
8 | COC(=O)[C@@H]1CC2=CC(=O)CC[C@]2(C)[C@@]23O[C@@H]2C[C@@]2(C)[C@@H](CC[C@@]24CCC(=O)O4)[C@H]13 [EPLERENONE] | > 300 | > 30 | > 30 | > 30 | > 30 | > 30 | > 30 | > 30 | > 30 | > 30 | > 30 | > 30 | > 30 | > 30
9 | NC[C@H]1O[C@H](O[C@H]2[C@H](O)[C@@H](O[C@H]3O[C@H](CO)[C@@H](O)[C@H](N)[C@H]3O)[C@H](N)C[C@@H]2N)[C@H](O)[C@@H](O)[C@@H]1O [KANAMYCIN] | > 300 | > 10 | > 10 | > 30 | > 10 | > 30 | > 10 | > 30 | > 30 | > 10 | > 30 | > 30 | > 10 | > 30
